In US20150212068A1, “Cholyl-L-Lysyl-Fluorescein Assay” (Novassay SA, priority 2012, published 2015):
Entries after “also recorded” stand apart in the source; their conditions may differ.

Tests used:
[1] = Stability of CLF spiked directly in human plasma at room temperature and 4° C. (Test 3), HPLC-MS/MS; type: in vitro ADME; details: for CLF concentration: human plasma spiked 100 ng/ml, mean ± SEM (n = 2); for CLF remaining: human plasma, vs To; for percentage of compound remaining (by comparing with content at To), lowest over incubation: plasma, up to 24 h
Experimental: Test 3: […] The final concentration of CLF was of 100 ng/ml. Two aliquots of 200 μl of plasma spiked with CLF were taken (To) and the remaining solution was divided in 2 equal fractions. One fraction was incubated at room temperature and the second one was incubated at 4° C. Two aliquots of 200 μl were taken from both fractions after 30 min, 120 min and 24 h of incubation. Samples were stored at −70° C. until further analysis. […] Thus, a stock solution of IS at 100 μg/ml in acetonitrile was 50-fold diluted in acetonitrile in order to obtain a final concentration of 2 μg/ml. Then, 200 μl of this solution were added to each plasma sample in order to precipitate the proteins. Samples were vortexed/mixed and centrifuged 5 min at 20,000 g (4° C.). After centrifugation, the clear supernatant (around 250 μl) was transferred into 1.2 ml HPLC glass vials and sealed. Samples were placed into the refrigerated autosampler and 20 μl were injected into the HPLC-MS/MS system. Test samples were injected twice. […] The injected volume of sample was 20 μl and the “full loop” mode was applied. The temperature of the analytical column was kept at 30° C. CLF and its IS were separated on an Acclaim 120 C18 column (5 μm, 2.1×100 mm, Dionex) by elution with a linear gradient of acetonitrile in water as described in Table 6. An ion trap mass spectrometer equipped with an ESI interface was operated in the positive ionization mode. For each compound, the most abundant ion formed in MS was selected for MS/MS fragmentations. In order to increase the sensitivity and the specificity of the method, the MRM mode was selected. The most specific daughter ions formed in MS/MS were used for quantification.

[2] = Effect of light exposure on CLF-spiked serum, 48 hrs at room temperature, CLF ELISA; type: physicochemical, human; details: for % difference (light from dark) / observed Light / observed dark: serum pool; for % difference (light from dark) / observed dark: 48 hrs at RT; for observed Light: 48 hrs at RT near light source; for observed dark: covered with aluminium foil
Experimental: These conditions were used for all assays described in Phase 2a (above) and Phase 2b (below). See Appendix B and C for buffer and conjugate formulations respectively: • Add 25 μl/well of sample or standard (0-1000 ng/ml CLF in Buffer #24) to the wells of a streptavidin-coated microtitre plate (NovAssay, F2SAC). • Add 100 μl/well of fluorescein-biotin (Sigma B9431) at 20 ng/ml in Buffer #24+0.2% w/v ANS (Sigma 10417). • Add 100 μl/well of anti-fluorescein HRP (NovAssay, DV047/17-3) at 100 ng/ml in Buffer #24. • Incubate the plate for 30 minutes at room temperature. • Wash the plate 3 times with 800 μl/well Buffer #29 and tap the plate dry. • Add 100 μl/well of SureBlue Reserve TMB Substrate (KPL) and incubate the plate for 10 minutes at room temperature. • Stop the substrate reaction by adding 100 μl/well of 1M HCl and read the absorbance at 450 nm wavelength (ThermoFisher Scientific, Multiskan FC).
For the study of the effect of light, 3 pools of serum were spiked with CLF at 31.25, 125 and 500 ng/ml. One aliquot of each pool was put near a light source (fluorescent bulb 58 watts, at a distance of 85 cm). The “dark” sample was covered with aluminium foil. The samples were at RT (˜18-22° C.). Storage time was 48 hrs.

[3] = Quantification of CLF in 5 human plasma samples by HPLC-MS/MS with calibration curves from SS CLF-MetOH and SS CLF-EtOH; type: physicochemical
Experimental: Two working solutions of CLF were prepared. […] Five human plasma samples, spiked with CLF from both working solutions, were prepared for HPLC-MS/MS analysis. These samples (named S1, S2, S3, S4 and S5) were thawed at room temperature, extemporaneously, and 100 μl of each were transferred in appropriate tubes. The HPLC-MS/MS analysis was conducted with two calibration curves, constituted with 7 single points (non zero). The first one was prepared by serial dilutions in methanol of the working solution named SS CLF-MetOH. The second one was prepared by serial dilutions in methanol of the working solution named SS CLF-EtOH. Both working solutions were centrifuged 5 min at 3000 g before dilutions. These dilutions of CLF in methanol allowed obtaining the 10× standard solutions used for standard sample preparation. Then, calibration curves were prepared by adding 10 μl of the concentrated standard solutions to 90 μl of free-drug human plasma. The final concentrations of calibrators were of 1000, 500, 250, 100, 25, 5 and 1 ng/ml. […] The contents of CLF were determined in 5 human plasma samples provided, according to the standard curve generated from both separate working solutions. […] The content of CLF was semi-quantified using data previously obtained. The UV response at 254 nm was used for semi-quantification. […] The differences between both quantifications were also evaluated as follows: […]

[4] = room temperature (25 ± 2° C.), 0.0 hours
[5] = room temperature (25 ± 2° C.), 0.5 hours
[6] = room temperature (25 ± 2° C.), 2.0 hours
[7] = room temperature (25 ± 2° C.), 24.0 hours

SMILES: CC(CCC(=O)NC(CCCCNC(=S)Nc1ccc(-c2c3ccc(=O)cc-3oc3cc(O)ccc23)c(C(=O)O)c1)C(=O)O)C1CCC2C3C(O)CC4CC(O)CCC4(C)C3CC(O)C12C [CLF, Cholyl-L-Lysyl-Fluorescein]
- CLF stability directly in plasma ([1]; 4° C. and room temperature, 24 h): stable for 24 h
- CLF concentration ([1]; 4° C., 0.0 hours): 101.9 ± 4.6 ng/mL
- CLF concentration ([1]; 4° C., 0.5 hours): 101.4 ± 3.5 ng/mL
- CLF concentration ([1]; 4° C., 2.0 hours): 89.9 ± 3.4 ng/mL
- CLF concentration ([1]; 4° C., 24.0 hours): 94.5 ± 3.6 ng/mL
- CLF concentration [1, 4]: 101.9 ± 4.6 ng/mL
- CLF concentration [1, 5]: 85.3 ± 0.0 ng/mL
- CLF concentration [1, 6]: 93.2 ± 0.0 ng/mL
- CLF concentration [1, 7]: 100.7 ± 3.3 ng/mL
- CLF remaining ([1]; 4° C., 0.0 hours): 100.0%
- CLF remaining ([1]; 4° C., 0.5 hours): 99.5%
- CLF remaining ([1]; 4° C., 2.0 hours): 88.2%
- CLF remaining ([1]; 4° C., 24.0 hours): 92.7%
- CLF remaining [1, 4]: 100.0%
- CLF remaining [1, 5]: 83.7%
- CLF remaining [1, 6]: 91.4%
- CLF remaining [1, 7]: 98.8%
- plasmatic concentrations measured ([1]; plasma spiked with 100 ng/ml, 4° C. and room temperature, 0-24 h): 85.3 to 101.9 ng/mL
- percentage of compound remaining (by comparing with content at To), lowest over incubation ([1]; 4° C.): ≥ 88.2%
- percentage of compound remaining (by comparing with content at To), lowest over incubation ([1]; room temperature): at least 83.7%
- CLF immunoreactivity lost ([2]; exposed to light, after 48 hrs): long period, with up to 25% of CLF
- % difference (light from dark) ([2]; expected 31.25 ng/ml): 0%
- observed Light ([2]; expected 31.25 ng/ml): 37 ng/mL
- observed dark ([2]; expected 31.25 ng/ml): 37 ng/mL
- % difference (light from dark) ([2]; expected 125 ng/ml): −25%
- observed Light ([2]; expected 125 ng/ml): 107 ng/mL
- observed dark ([2]; expected 125 ng/ml): 143 ng/mL
- % difference (light from dark) ([2]; expected 500 ng/ml): −15%
- observed Light ([2]; expected 500 ng/ml): 423 ng/mL
- observed dark ([2]; expected 500 ng/ml): 495 ng/mL
- CLF immunoreactivity lost on exposure to light ([2]; spiked serum, 48 hrs, room temperature, fluorescent bulb vs dark): up to 25%
- quantitative value of CLF prepared in methanol (100%) relative to CLF prepared in aqueous ethanol (higher by) ([3]; EtOH:H2O:NaOH (50%) 500:1000:30, both immunoassay and HPLC methodologies): approximately 40%
- tautomerization of CLF ([3]; isomeric form of SS CLF-EtOH not detected in standard samples in human plasma): reversible and depends on the pH of the medium; also recorded: reversible and is dependent on the pH of the medium
